Several values for one entry are separate records, joined by “and”; a condition that tells them apart may be missing. Equal entries are not always repeated. Where no end group is shown, it is not given here.
Assays:
Assay type in all cases: in vivo
normal conscious sheep [1] = assay: Plasma ANP, BNP, CNP and NTproCNP responses to stepped OSTN infusion (RIA); details: for Plasma ANP / Plasma BNP / Plasma CNP: sheep n = 8, mean ± SD
Method: (§1) Sheep received I.V. infusions of increasing doses of ovine proOSTN (83–133), the putative 51 aa circulating peptide (at 2.5, 25 and 250 pmol/kg/min for 1 h each; Mimotopes, Melbourne, Victoria, Australia) and a vehicle control (0.9% saline) administered on separate days, ≥1 day apart, in a balanced random order.
(§2) Venous blood samples were obtained at 30 min and immediately preceding commencement of the first infusion (baseline) and at 30 min intervals for the duration of the study day. Samples were taken into tubes on ice, centrifuged at 4°C and stored at −20°C before assaying. Following extraction over C18 SepPac cartridges (Waters Corp., Milford, MA, USA), plasma concentrations of cGMP (Charles et al., [1990]), ANP (Charles et al., [1990]), BNP (Pemberton et al., [1997]), CNP (Charles et al., [1995]) and N‐terminal proCNP (NTproCNP) (Wilson et al., [2015]), were measured by radioimmunoassay (RIA) as previously described. Non‐extracted plasma renin activity (PRA) (Dunn & Espiner, [1976]) and aldosterone (Lun et al., [1983]) were measured as previously described. Cyclic AMP was measured by enzyme‐linked immunosorbent assay (catalogue no. ADI‐900‐163; Enzo Life Sciences, Farmingdale, NY, USA). For each analyte, all samples from individual animals were measured in the same assay to avoid interassay variability. Haematocrit concentrations were measured with every blood sample taken.

normal conscious sheep [2] = assay: Plasma sodium, potassium and creatinine during stepped OSTN infusion; details: sheep n = 8, mean ± SD
Method: as §1
(§3) Blood samples for analysis of plasma sodium, potassium and creatinine concentrations were taken immediately before the first dose (baseline), then hourly throughout the study. Urine volume and samples for the measurement of urine cGMP, urine cAMP, sodium, potassium and creatinine excretion were collected hourly throughout the study protocol. To estimate the contribution of renal tissues to urine cGMP/cAMP excretion, nephrogenous cGMP/cAMP was calculated using the formula [urine cG(A)MP − (glomerular filtration rate × plasma cG(A)MP/urine volume × min] (Hirata et al., [1990]).

normal conscious sheep [3] = assay: Renal responses (hourly urine collections, nephrogenous cGMP/cAMP) to stepped OSTN infusion; details: for Urine cAMP / Urine creatinine / Urine potassium: hourly urine collection, sheep n = 8, mean ± SD
Method: Eight Coopworth ewes (4–6 years; 42–60 kg; Lincoln University Farm, New Zealand) were instrumented under general anaesthesia (induced by 0.5 mg/kg diazepam I.V. and 4 mg/kg ketamine I.V. and maintained with a mixture of isoflurane and oxygen) and using approved peri‐ and postoperative antibiotics (20 mg/kg cephazolin I.V.; 6.6–20 mg/kg oxytetracycline I.V.) and analgesia (4 mg/kg carprofen I.V.). Sheep were instrumented via a 50‐mm‐long neck incision, allowing cannulation of the left carotid artery (16 gauge Angiocath; Becton Dickinson, Sandy, UT, USA) for direct measurement of mean arterial pressure (MAP) and heart rate (HR). A polyethylene catheter was placed in the left jugular vein for blood sampling and recording of central venous pressure (CVP). A Swan–Ganz thermodilution catheter (Edwards Life Sciences, Irvine, CA, USA) was placed in the pulmonary artery via the jugular vein for the measurement of cardiac output (CO). The urinary bladder was catheterized per urethra for timed urine collections (Charles, Espiner, Nicholls et al., [1996]). Animals recovered for ≥5 days before commencing the study protocol.
as §1, §3

normal conscious sheep [4] = assay: Plasma cGMP (RIA) and cAMP (ELISA) responses to stepped OSTN infusion; details: sheep n = 8, mean ± SD
Method: as §1, §2

[5] = end of 60 min OSTN infusion 2.5 pmol/kg/min
[6] = end of 60 min OSTN infusion 25 pmol/kg/min
[7] = end of 60 min OSTN infusion 250 pmol/kg/min
[8] = 1 h, end of OSTN 2.5 pmol/kg/min I.V.
[9] = 2 h, end of OSTN 25 pmol/kg/min I.V.
[10] = 3 h, end of OSTN 250 pmol/kg/min I.V.
[11] = 4 h, 1 h after end of infusions
[12] = 5 h, 2 h after end of infusions

SFSGFGSPLDRLSAGSVSHKGKQRKVVDHPKRRFGIPMDRIGRNRLSNSRG [OSTN]
Plasma ANP (normal conscious sheep [1]; [5]): 24.3 ± 10.1 pmol/L and 24 pmol/L | Plasma BNP (normal conscious sheep [1]; [5]): 2.0 ± 0.5 pmol/L | Plasma CNP (normal conscious sheep [1]; [5]): 1.21 ± 0.30 pmol/L and 1.2 pmol/L | Plasma ANP (normal conscious sheep [1]; [6]): 27.6 ± 10.2 pmol/L | Plasma BNP (normal conscious sheep [1]; [6]): 3.1 ± 0.9 pmol/L | Plasma CNP (normal conscious sheep [1]; [6]): 2.13 ± 0.50 pmol/L | Plasma ANP (normal conscious sheep [1]; [7]): 33.0 ± 14.2 pmol/L | Plasma BNP (normal conscious sheep [1]; [7]): 3.9 ± 2.3 pmol/L | Plasma CNP (normal conscious sheep [1]; [7]): 3.81 ± 1.30 pmol/L | Plasma NTproCNP (normal conscious sheep [1]; stepped OSTN infusions 2.5, 25, 250 pmol/kg/min vs vehicle, P = 0.064): no significant effect | Plasma creatinine (normal conscious sheep [2]; [8]): 76.6 ± 7.5 µmol/L | Plasma potassium (normal conscious sheep [2]; [8]): 3.8 ± 0.3 mmol/L | Plasma sodium (normal conscious sheep [2]; [8]): 147.0 ± 2.6 mmol/L | Plasma creatinine (normal conscious sheep [2]; [9]): 75.6 ± 6.9 µmol/L | Plasma potassium (normal conscious sheep [2]; [9]): 4.0 ± 0.5 mmol/L | Plasma sodium (normal conscious sheep [2]; [9]): 147.0 ± 2.5 mmol/L | Plasma creatinine (normal conscious sheep [2]; [10]): 76.4 ± 8.5 µmol/L | Plasma potassium (normal conscious sheep [2]; [10]): 4.0 ± 0.5 mmol/L | Plasma sodium (normal conscious sheep [2]; [10]): 146.9 ± 2.4 mmol/L | Plasma creatinine (normal conscious sheep [2]; [11]): 75.6 ± 8.9 µmol/L | Plasma potassium (normal conscious sheep [2]; [11]): 4.1 ± 0.6 mmol/L | Plasma sodium (normal conscious sheep [2]; [11]): 147.1 ± 2.2 mmol/L | Plasma creatinine (normal conscious sheep [2]; [12]): 74.6 ± 8.5 µmol/L | Plasma potassium (normal conscious sheep [2]; [12]): 4.3 ± 0.6 mmol/L | Plasma sodium (normal conscious sheep [2]; [12]): 146.5 ± 2.1 mmol/L | Urine cAMP (normal conscious sheep [3]; 1 h, OSTN 2.5 pmol/kg/min I.V.): 674 ± 367 pmol/h | Urine creatinine (normal conscious sheep [3]; 1 h, OSTN 2.5 pmol/kg/min I.V.): 0.635 ± 0.100 mmol/h | Urine potassium (normal conscious sheep [3]; 1 h, OSTN 2.5 pmol/kg/min I.V.): 15.6 ± 3.5 mmol/h | Urine cAMP (normal conscious sheep [3]; 2 h, OSTN 25 pmol/kg/min I.V.): 699 ± 322 pmol/h | Urine creatinine (normal conscious sheep [3]; 2 h, OSTN 25 pmol/kg/min I.V.): 0.593 ± 0.100 mmol/h | Urine potassium (normal conscious sheep [3]; 2 h, OSTN 25 pmol/kg/min I.V.): 12.7 ± 4.9 mmol/h | Urine cAMP (normal conscious sheep [3]; 3 h, OSTN 250 pmol/kg/min I.V.): 549 ± 211 pmol/h | Urine creatinine (normal conscious sheep [3]; 3 h, OSTN 250 pmol/kg/min I.V.): 0.586 ± 0.200 mmol/h | Urine potassium (normal conscious sheep [3]; 3 h, OSTN 250 pmol/kg/min I.V.): 9.9 ± 3.6 mmol/h | Urine cAMP (normal conscious sheep [3]; [11]): 452 ± 219 pmol/h | Urine creatinine (normal conscious sheep [3]; [11]): 0.533 ± 0.200 mmol/h | Urine potassium (normal conscious sheep [3]; [11]): 7.9 ± 3.4 mmol/h | Urine cAMP (normal conscious sheep [3]; [12]): 891 ± 1136 pmol/h | Urine creatinine (normal conscious sheep [3]; [12]): 0.542 ± 0.100 mmol/h | Urine potassium (normal conscious sheep [3]; [12]): 7.4 ± 3.6 mmol/h | Urine sodium excretion (natriuresis) (normal conscious sheep [3]; stepped OSTN infusions vs vehicle, P = 0.226): did not increase | Urinary rate (diuresis) (normal conscious sheep [3]; stepped OSTN infusions vs vehicle, P = 0.467): did not increase | Urinary cGMP excretion (normal conscious sheep [3]; stepped OSTN infusions vs vehicle, dose-dependent, P = 0.002): increased | Plasma cAMP (normal conscious sheep [4]; [8]): 11.5 ± 4.8 pmol/L | Plasma cAMP (normal conscious sheep [4]; [9]): 11.6 ± 3.0 pmol/L | Plasma cAMP (normal conscious sheep [4]; [10]): 12.9 ± 6.5 pmol/L | Plasma cAMP (normal conscious sheep [4]; [11]): 10.4 ± 7.1 pmol/L | Plasma cAMP (normal conscious sheep [4]; [12]): 10.7 ± 6.1 pmol/L | Plasma cGMP (normal conscious sheep [4]; [5]): 11.2 ± 5.1 nmol/L | Plasma cGMP (normal conscious sheep [4]; [6]): 19.0 ± 11.0 nmol/L | Plasma cGMP (normal conscious sheep [4]; [7]): 23.1 ± 9.7 nmol/L

— publication PMC11291853, “Haemodynamic, hormonal and renal actions of osteocrin in normal sheep” (Experimental Physiology, 2024)
